In patent US7910568B2, “Derivatives of 4- or 5-aminosalicylic acid” (Antibe Therapeutics Inc., priority 2005, dated 2011):

Key:
[1] = tested on: IL-10 mRNA; test: TNBS-induced colitis in mice, colonic IL-10 mRNA by RT-PCR; assay type: in vivo; conditions: dose equimolar to 50 mg/kg mesalamine; normalized to GAPDH, ratio to healthy controls
Experimental: (§1) The same model was used as described above. In this example, the effects of mesalamine (50 mg/kg) were compared to those of equimolar doses of Compound XXXV. In addition to measuring the severity of colitis by measuring disease activity score and MPO activity, tissues were processed for measurement of a number of genes for inflammatory cytokines and other mediators.
(§2) In particular, mRNA expression in mice of tumour necrosis factor-alpha (TNF-α), interferon gamma (IFN-γ), colonic interleukin (IL)-1, IL-2, IL-10, IL-12 p40, RANTES, cyclooxygenase (COX)-1, COX-2, constitutive endothelial nitric oxide synthase (eNOS), and inducible NOS (iNOS) was measured as described in Wallace et al. (1999) Gastroenterology 117: 557-566, incorporated herein by reference.
(§3) Briefly, reverse transcription-polymerase chain reaction (RT-PCR) was used to detect and quantify mRNA of the particular cytokine/chemokine/enzyme. Glyceraldehyde-3-phosphate dehydrogenase (GAPDH) was used as the “housekeeping gene” for mRNA expression (i.e., as an internal control). For each sample, the ratio of the amplification of the target gene to the amplification of GAPDH (expression of each is measured by performing densitometry on gels) was obtained. […]

[2] = tested on: COX-2 mRNA; test: TNBS-induced colitis in mice, colonic COX-2 mRNA by RT-PCR; assay type: in vivo; conditions: dose equimolar to 50 mg/kg mesalamine; FIG. 13
Experimental: as §1, §2, §3

[3] = tested on: eNOS mRNA; test: TNBS-induced colitis in mice, colonic eNOS mRNA by RT-PCR; assay type: in vivo; conditions: dose equimolar to 50 mg/kg mesalamine; FIG. 14
Experimental: as §1, §2, §3

[4] = Viability of HT-29 human colon cancer cells, MTT assay; assay type: cell-based; conditions: HT-29 colon cancer cells, 72 h exposure, HT-29, MTT, read-out: Cell viability rate as a percent of the vehicle (DMSO)-treated cells
Experimental: HT-29 cells were grown in culture using standard methods. The cells were exposed to vehicle (DMSO), mesalamine or Compound XXXV. Concentrations ranging from 0.1 to 10 μM were tested, with each concentration tested in 6 wells. At the end of 72 h of exposure to the test drugs, cell viability was measured using the MTT [3-(4,5-dimethylthiaxol-2-yl)-2,5-diphenyltetrazolium bromide] assay (Carmichael et al. (1978) Cancer Res. 47, 936-942), incorporated herein by reference.

[5] = tested on: visceral pain perception in response to colorectal distension; test: Rat model of visceral pain perception, colorectal distension, abdominal withdrawal reflex score; assay type: in vivo
Experimental: A rat model of visceral pain perception, a pre-clinical model of irritable bowel syndrome, was used in the following example. Rats (male, Wistar, 200-250 g, obtained from Charles River, Monza, Italy), were housed in plastic cages and maintained under controlled conditions with 12-hours light/dark cycle with lights on at 7.00 AM. Tap water and standard laboratory chow were freely available. Before experiments, rats were individually trained by spending 2-3 hours per day in a plexiglass cage for 2-3 days. It allowed them to adjust to a movement-restriction environment. Food was withheld for 12 hours before colorectal distension (CRD) recording were performed. Experiments were performed in awake rats and were conducted in a blind manner in that the observer was not aware of the identity of drug administered to each animal.
In the testing day, rats were sedated with ether inhalation and a 2 cm long latex balloon was inserted intrarectally 2 cm from the anal verge and fixed at the base of the tail. The balloon was connected via a double-barreled cannula to a pressure transducer to continuously monitoring the rectal pressure by a computer (PowerLab PC, A.D. Instruments, Milford, Mass., USA) and to a syringe for inflation/deflation of the balloon. The rats were then housed in a small cage (20×8×8 cm) on an elevated Plexiglas™ platform and allowed to wake up and adapt for 1 hour. After recovery from sedation, animals underwent the CRD procedure and behavioral responses were tested. The night before the experiments, the balloons were inflated and left overnight so the latex stretched and the balloons became compliant.
CRD of 20 seconds, performed every 5 minutes, was applied in increment of 0.4 ml starting from 0.4 ml up to 1.6 ml water. To achieve an accurate measurement of the colonic parameters and perception, the distensions were repeated twice for each intensity and data for each animal were averaged for analysis. Each animal underwent a double set of CRD. Twenty minutes after the first sequence of CRD (0.4 mL-1.6 ml water), drugs were administered intraperitoneally (i.p.) and a second set of CRD was performed. Behavioral responses during the first and the second set of CRD were assessed and compared.
Behavioral response to CRD was assessed by measuring the abdominal withdrawal reflex (AWR) using a semiquantitative score (1).
The effects of mesalamine and Compound XXXV on colonic compliance and sensitivity were determined using a total of 8 fasting rats. To investigate whether the administration of mesalamine and Compound XXXV could revert pain induced by CRD, after the first sequence of CRD, […], after which a second set of CRD was repeated.
All data are presented as the mean±SEM, with sample sizes of 4 rats/group; statistical comparison of paired data was performed by the Wilcoxon signed rank test. An associated probability (p value) of less that 5% was considered significant.

[6] = H2S generation in buffer, liver homogenate and liver homogenate with PAG, sulfide sensitive electrode; assay type: in vitro ADME, rat; conditions: 1 mM compound, FIG. 21

## Nc1ccc(O)c(C(=O)Oc2ccc(-c3cc(=S)ss3)cc2)c1 [Compound XXXV, 5-Amino-2-hydroxy-benzoic acid 4-(5-thioxo-5H-[1,2]dithiol-3-yl)-phenyl ester]
[1]
  Expression of IL-10 mRNA: did not suppress expression of IL-10 mRNA
[2]
  COX-2 mRNA expression: suppressed
[3]
  eNOS mRNA expression: suppressed
[4]; 0.1 μM
  viability at 72 h, 0.1 µM: 88.4 ± 2.9%
[4]; 1 μM
  viability at 72 h, 1 µM: 87.3 ± 2.3%
[4]; 10 μM
  viability at 72 h, 10 µM: 79.6 ± 1.9%
[5]; 100 mg/kg i.p., second set of CRD 0.4-1.6 ml, FIG. 15
  Perception score (visceral pain in response to colorectal distension): more effective than mesalamine (and vehicle) in reducing visceral pain
[5]; 0.8 mL colorectal distention, 100 mg/kg, glibenclamide 10 mg/kg i.p. 30 min before, FIG. 17
  Pain perception score after glibenclamide pretreatment: reversed by pretreatment with glibenclamide
[5]; 0.8 mL colorectal distention, 100 mg/kg, FIG. 17
  Pain perception score: significantly reduced the pain perception
[5]; equimolar doses: mesalamine 50 mg/kg, Compound XXXV 130 mg/kg, ADT-OH 80 mg/kg, Compound XXVII 100 mg/kg, 4-HTB 50 mg/kg, vs vehicle
  Pain perception score: significantly reduced pain perception
[6]; PAG 2 mM, inhibitor of cystathionine γ-lyase
  Effect of PAG (DL-propargylglycine) on H2S generation in liver homogenate: lack of effect
[6]; potassium phosphate buffer pH 7.4, 37° C.
  H2S release in buffer: release H2S spontaneously (in buffer)
[6]; rat liver homogenate 10% (wt/vol)
  H2S release in liver homogenate compared with buffer: greater when in the presence of tissue
